For series [1] the following is noted: background statement; cited from earlier work.
In a further series the test system is MCAO rats. The series can be described thus: Area and swelling degree of cerebral infarction in rat MCAO models. The series is classed as in vivo, Sprague-Dawley (SD) rat. Conditions: n=8, glibenclamide 10 μg/kg ip at ischemia 4 h + 200 ng/h sc for 44 hours, after ischemia for 48 hours. How it is done: 7.2 Experiment Animals: Male Sprague-Dawley (SD) rat, clean grade, weighing at 200˜230 g. The temperature of animal feeding room was maintained at 20˜24° C., the humidity was maintained at 30˜70%; a cycle of lighting on 12 hours/lighting off 12 hours (06:00 AM on, 18:00 PM off) every day was employed. During the experiment, the animals were feed separately, and had free access to water and food.
The test drugs in group GB was formulated as follows: glibenclamide was dissolved in a little DMSO (dimethyl sulfoxide), the resulting solution was diluted to a DMSO concentration of 5 vol % with physiological saline, and the pH of the solution was adjusted to 8˜8.5 with NaOH. […]
Rats were rested for about 1 week before the experiment started. […] The blood flow in the brain was monitored with a laser Doppler (Model moorVMS-LDF2, Manufacturer moor) respectively pre-operation, post-operation and immediately after reperfusion, and the molding in which the ratio of the postoperative blood flow to the preoperative blood flow was less than 30% was regarded as a qualified molding. […]
After ischemia for 48 hours, the brain was taken and put into a brain slicer to slice coronal sections through the brain (2 mm each piece), stained at dark with 1% TTC for 15 min at 37° C., and analyzed for the area of infarction after taking a photograph. […]

Structures are written as SMILES.

For the compound `COc1ccc(Cl)cc1C(=O)NCCc1ccc(S(=O)(=O)NC(=O)NC2CCCCC2)cc1` [glibenclamide, 5-chloro-N-(4-[N-(cyclohexylcarbamoyl)aminosulfonyl]phenethyl)-2-methoxybenzamide], in series [1], the water solubility entry is listed as “less than 5 μg/ml”. Also, the “Swelling degree (area of infarction side hemisphere / non-infarction side hemisphere)” value with MCAO rats is on record as 1.31 ± 0.04.
